One may read the EC50 as the concentration that produces a half-maximal response.

Consider two compounds from publication PMC7391726, “Fatty acid mimetic PBI-4547 restores metabolic homeostasis via GPR84 in mice with non-alcoholic fatty liver disease” (Scientific Reports, 2020).

The subject of one assay is ob/ob mice. As to the kind of experiment: ob/ob leptin-deficient genetic mouse model of metabolic syndrome. Format: in vivo. From the text:
We next sought to confirm our above findings obtained from the diet-induced model of obesity by using the ob/ob leptin-deficient genetic mouse model of metabolic syndrome. […] Additionally, the mRNA expression profiles of glucose- and FA-related genes in liver (Fig. S4D,E) and WAT (Fig. S5) also differed between pioglitazone- and PBI-4547-treated mice.

The target in the next assay is T1, GPR40 (Homo sapiens, UniProt O14842).
T1 construct: expressed in transfected cells; host or cells: HEK293
Also noted: method as in PMID 29454750. The conditions noted are these: previously reported, cited from earlier work.

Another assay deals with T2, GPR84 (Homo sapiens, UniProt Q9NQS5).
T2 construct: expressed in transfected cells; host or cells: HEK293
As to the kind of experiment: BRET Gαi2 activation biosensor in HEK293 cells transfected with GPR84. Format: cell-based. Particulars: compound alone vs vehicle. From the text:
PBI-4547 (2-[3,5-dipentylphenyl]acetate sodium salt) is a medium-chain FA (MCFA) mimetic (Fig. 1A). Accordingly, we examined the signaling properties of PBI-4547 on receptors known to be activated by MCFAs. […] This biosensor consisted of an Rluc8-tagged Gαi2 subunit, a GFP10-tagged Gγ2 subunit, and an untagged Gβ1. Agonist stimulation and receptor activation triggers a physical separation between the Gα-Rluc8 donor and the GFP10-Gγ2 acceptor, resulting in a decrease in BRET signal, whose amplitude is correlated to ligand efficacy. […] (A) Chemical structure of PBI-4547. (B) Gi pathway activation was monitored in HEK293 cells transfected with GPR84 and the Gαi2 activation biosensor. […] (C) β-arrestin 2 recruitment to activated GPR120 receptor was monitored in HEK293 cells transfected with RLuc8-β-arrestin 2 and GPR120-GFP10. (D) Cells transfected with GPR40 and Gαq or Gαi2 activation biosensor were exposed to increasing concentrations of PBI-4547 or to 500 µM of sodium decanoate, and BRET variation compared with vehicle was measured. Cells were exposed to increasing concentrations of PBI-4547 or to 100 µM of GW9508, and BRET variation compared with vehicle was measured. (E) LanthaScreen TR-FRET competitive binding assay of PBI-4547 and PPAR control agonists to the LBD of PPARα, PPARδ and PPARγ. (F) Cell-based GAL4 transactivation assay in HEK293 cells transfected with the LBD of PPARα, PPARδ or PPARγ, and treated with increasing concentrations of PBI-4547 or PPAR control agonists. Data in (B–D) are expressed as means ± SEM of 4–5 experiments; data in (E,F) are from a representative experiment from a total of 3 to 4 independent experiments. BRET measurements in transiently transfected HEK293 cells were performed as previously described. Ligands were incubated with cells at room temperature for 10 min (G protein biosensors) or 25 min (β-arrestin/GPR120) before collecting BRET[2] readings between Rluc8 and GFP10.
In general terms: BRET reads energy transfer from a luciferase to a nearby fluorophore.

Where two headings read alike, the source gives them in different places.

T1 sequence (O14842 whole entry, species assumed): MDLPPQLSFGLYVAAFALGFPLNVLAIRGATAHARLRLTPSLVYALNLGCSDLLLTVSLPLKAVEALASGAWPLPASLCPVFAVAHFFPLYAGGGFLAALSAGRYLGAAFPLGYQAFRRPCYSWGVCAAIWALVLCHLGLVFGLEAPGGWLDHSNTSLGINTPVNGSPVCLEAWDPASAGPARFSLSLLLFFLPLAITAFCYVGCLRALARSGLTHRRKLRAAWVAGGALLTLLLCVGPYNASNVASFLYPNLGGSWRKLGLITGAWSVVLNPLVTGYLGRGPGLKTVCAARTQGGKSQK
T2 sequence (Q9NQS5 whole entry, species assumed): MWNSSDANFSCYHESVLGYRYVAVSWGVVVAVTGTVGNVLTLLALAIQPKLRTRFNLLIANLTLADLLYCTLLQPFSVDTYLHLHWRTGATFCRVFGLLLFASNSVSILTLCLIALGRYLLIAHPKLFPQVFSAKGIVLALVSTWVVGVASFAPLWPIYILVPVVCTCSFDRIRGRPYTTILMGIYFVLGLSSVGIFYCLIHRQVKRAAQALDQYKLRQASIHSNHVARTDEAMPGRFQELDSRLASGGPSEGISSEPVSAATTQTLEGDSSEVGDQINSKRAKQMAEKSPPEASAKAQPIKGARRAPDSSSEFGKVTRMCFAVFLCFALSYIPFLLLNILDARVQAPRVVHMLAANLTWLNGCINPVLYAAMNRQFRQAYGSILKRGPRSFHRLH

For `CCc1ccc(CCOc2ccc(CC3SC(=O)NC3=O)cc2)nc1` (stereo not shown) [pioglitazone, reference compound], in the assay with ob/ob mice, the bodyweight result is listed as “increased trend towards weight gain”.

On to `CCCCCCCCCC(=O)[O-].[Na+]` [sodium decanoate], for which the EC50 at GPR40 (Gαi2, read-out: EC50, GPR40 Gαi2) is 16 µM; at GPR40 (Gαq, read-out: EC50, GPR40 Gαq), 102 µM. In addition, at GPR84, the “GPR84/Gαi2-mediated BRET signal modulation (agonist mode)” value was “induced a BRET signal decrease”.
